Experiments:
[1] = molecular target: T1, recombinant human core RAG1 (AA387-1011)/core RAG2 (AA1-387) in the presence of HMGB1 (Homo sapiens, UniProt P15918+P55895); experiment: Biochemical RAG DNA cleavage assay (gel-based, dsDNA 12RSS/23RSS substrate); conditions: for IC50: 25 nM RAG1-RAG2, 575 nM HMGB1, 10 nM dsDNA, 5 mM MgCl2, 1 h 37°C, no serum; for Inhibitory activity against RAG1/RAG2 cleavage: clinically relevant / supratherapeutic concentrations
T1 construct: made in house; host or cells: RAG1/RAG2 co-expressed in Expi293F GnTI human cells; HMGB1 in E. coli BL21DE3
T1 sequence (P15918 387-1011): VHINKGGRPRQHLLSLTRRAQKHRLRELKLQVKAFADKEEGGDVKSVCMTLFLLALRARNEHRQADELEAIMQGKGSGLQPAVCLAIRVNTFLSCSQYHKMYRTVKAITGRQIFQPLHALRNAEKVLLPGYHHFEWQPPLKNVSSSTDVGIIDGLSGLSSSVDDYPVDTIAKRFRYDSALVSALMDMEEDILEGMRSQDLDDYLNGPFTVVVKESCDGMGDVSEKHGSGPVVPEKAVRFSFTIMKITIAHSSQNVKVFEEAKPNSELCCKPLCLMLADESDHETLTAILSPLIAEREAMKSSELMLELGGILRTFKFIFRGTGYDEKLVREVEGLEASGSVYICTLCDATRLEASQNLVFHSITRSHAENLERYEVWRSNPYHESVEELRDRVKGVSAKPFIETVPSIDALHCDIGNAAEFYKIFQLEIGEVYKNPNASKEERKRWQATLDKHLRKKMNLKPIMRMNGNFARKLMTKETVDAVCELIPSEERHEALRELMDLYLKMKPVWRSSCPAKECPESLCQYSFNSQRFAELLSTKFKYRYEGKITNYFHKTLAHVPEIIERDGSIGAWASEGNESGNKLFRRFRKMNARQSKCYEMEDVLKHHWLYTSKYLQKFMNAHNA
T1 sequence (P55895 1-387): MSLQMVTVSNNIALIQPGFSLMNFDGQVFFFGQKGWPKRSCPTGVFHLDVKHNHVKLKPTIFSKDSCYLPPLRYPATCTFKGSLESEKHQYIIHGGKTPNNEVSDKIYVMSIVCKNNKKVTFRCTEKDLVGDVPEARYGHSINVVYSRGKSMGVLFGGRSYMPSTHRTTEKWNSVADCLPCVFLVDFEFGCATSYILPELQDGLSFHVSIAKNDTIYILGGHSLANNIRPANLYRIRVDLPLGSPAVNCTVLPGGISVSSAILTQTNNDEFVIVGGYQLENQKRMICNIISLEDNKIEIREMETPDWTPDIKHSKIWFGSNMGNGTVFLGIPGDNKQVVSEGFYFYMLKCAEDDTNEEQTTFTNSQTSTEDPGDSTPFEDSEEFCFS
Description: To directly observe the potential inhibition of RAG1/RAG2, we measured the effect of INSTIs on DNA cleavage by RAG1/RAG2 in the presence of HMGB1. This biochemical system utilizes pre-assembled recombinant human core RAG1 (AA387-1011)/core RAG2 (AA1-387) in the presence of excess truncated HMGB1 (AA1-163) and a linear dsDNA RSS substrate, using gel electrophoresis and a fluorescent dye to monitor cleavage products (Fig. 2A) ([24]). The dsDNA RSS substrate, containing both the 12RSS and 23RSS, was designed to have the different cleavage products resolved via gel electrophoresis. RAG1/RAG2 can singly cleave either the 12RSS or the 23RSS, or both, leading to potentially five different products in the reaction (Fig. 2B). HMGB1 orients RAG1/RAG2 for proper binding to the RSS substrate ([16]). We quantified the activity of RAG as the percentage of substrate conversion to a specific cleaved product, as separated by agarose gel electrophoresis and determined by the DNA-binding fluorescent dye. With the 569-bp substrate, a single cleavage of the 12RSS results in a 492-bp dsDNA and a 77-bp hairpin. Cleavage of the 23RSS alone produces a 433-bp dsDNA and a 136-bp hairpin. Successful cleavage of both RSSs results in a 356-bp dsDNA and both of the 77- and 136-bp hairpins. For the RAG activity analysis, we measured the amount of double cleaved product (356 bp) in relation to the amount of substrate (569 bp) at the end of the reaction. The optimal concentrations of RAG1/RAG2, HMGB1, and MgCl2 were determined through titration (Fig. S2). Because there is no direct RAG1/RAG2 inhibitor previously characterized, we used suramin, a polyanionic compound commonly used as a non-specific inhibitor for DNA/RNA binding or processing proteins as a control for inhibition ([25], [26]).
Prior to the cleavage assay, compounds at the designated concentrations were spotted into 96-well plates using the Tecan Digital D300e (Tecan, Mannedorf, Switzerland). RAG1/RAG2 was incubated with HMGB1 and MgCl2 on ice for at least 15 min in a reaction buffer (25-mM 3-(N-morpholino)propanesulfonic acid [MOPS], pH 7.0, 50-mM KCl, and 2-mM DTT). After the initial incubation, the enzyme solution was added to the compound plates and incubated for an additional 15 min at room temperature. dsDNA substrate in reaction buffer was added to the plates to initiate the reaction. The final conditions of the reaction are 25-nM RAG1–RAG2 complex, 575-nM HMGB1, 10-nM dsDNA substrate, and 5-mM MgCl2. After 1 h at 37°C, reactions were quenched by the addition of final concentrations of 0.19% SDS, 45.5-µg/mL Proteinase K, and 60-mM EDTA.
Glycerol was added to a final concentration of 7.6% in each sample, and samples were loaded onto non-denaturing 6% Tris–borate–EDTA (TBE) gels in 1× TBE buffer. The samples were run at 100 V for 1.5 h, and gels were stained with 1× SYBR Gold in 1× TBE for 20 min. The stained gels were imaged with an Amersham Typhoon Biomolecular Imager.
The gel images were analyzed using ImageQuant software (Cytiva). The densities of the 569-bp-length substrate and fully cleaved 356-bp-length product were quantified. The product density was divided by the sum of substrate and product bands to obtain a percent product value. These calculated values were subtracted from a negative control (pre-quenched reaction where EDTA was added before reaction was initiated) and then normalized to the DMSO-treated control. The normalized data were plotted against concentration using GraphPad Prism (version 9.3; GraphPad Software, San Diego, CA, USA).

[2] = molecular target: recombinant HIV-1 integrase; conditions: read-out: Target IC50 for integrase; cited from earlier work
[3] = cited from earlier work; for Human clinical free Cmax: Cmax corrected for protein binding
[4] = clinical concentrations; cited from earlier work
[5] = tested on: RAG1/RAG2; conditions: cited from earlier work; for Effect on RAG binding or cleavage at the RSS: EVG 50–200 μM, RAL up to 200 µM
[6] = molecular target: RAG1; conditions: biolayer interferometry; read-out: Dissociation constant from RAG1; cited from earlier work

Compound | IC50 [1] | Inhibitory activity against RAG1/RAG2 cleavage [1] | IC50 [2] | Human clinical free Cmax [3] | Cmax ([3]; at clinical dosage of Table 1 (EVG with 150 mg cobicistat)) | Free drug fraction [4] | Decrease of DNA binding and cleavage by RAG1 ([5]; DTG 200–500 μM) | Effect on RAG binding or cleavage at the RSS [5] | Kd [6]
O=C(/C=C(\O)c1nnn[nH]1)c1c[nH]c2ccc(Cl)cc12 [p8, 5-CITEP] | 58200 ± 5600 nM | – | – | – | – | – | – | – | –
C[C@H]1CO[C@@H]2Cn3cc(C(=O)NCc4ccc(F)cc4F)c(=O)c(O)c3C(=O)N12 [CAB, cabotegravir] | > 500 nM | do not show inhibitory activity | 3 nM | 25 nM | – | – | – | – | –
O=C(NCc1c(F)cc(F)cc1F)c1cn2c(c(O)c1=O)C(=O)N1[C@H]3CC[C@H](C3)O[C@@H]1C2 [BIC, bictegravir] | > 500 nM | do not show inhibitory activity | 7.5 ± 0.3 nM | 34 nM | – | – | – | – | –
C[C@@H]1CCO[C@H]2Cn3cc(C(=O)NCc4ccc(F)cc4F)c(=O)c(O)c3C(=O)N12 [DTG, dolutegravir] | > 500 nM | – | – | 58 nM | 8300 nM | 0.70% | 50%–75% | – | –
Cc1nnc(C(=O)NC(C)(C)c2nc(C(=O)NCc3ccc(F)cc3)c(O)c(=O)n2C)o1 [RAL, raltegravir] | > 10000 nM | do not show inhibitory activity | – | – | – | – | – | no effect on binding or cleavage | –
COc1cc2c(cc1Cc1cccc(Cl)c1F)c(=O)c(C(=O)O)cn2[C@H](CO)C(C)C [EVG, elvitegravir] | > 500 nM | do not show inhibitory activity | – | 22 nM | – | 0.48% | – | inhibition of RAG cleavage at the RSS | 32500 nM
